# According to ChEMBL document CHEMBL3351967, “2-Alkyloxazoles as potent and selective PI4KIIIβ inhibitors demonstrating inhibition of HCV replication” (Bioorg Med Chem Lett, 2014):
# Test system: Hepatitis C virus
# Assay: Antiviral activity against Hepatitis C virus genotype 1b Con1 infected in HuH7 cells by cell based replicon assay
# Format: functional, Hepacivirus hominis
# Conditions: genotype 1b Con1, Huh-7
row,Structure (SMILES),EC50
1,COc1ccc(-c2[nH]c(C3CC3)nc2C)cc1S(=O)(=O)N[C@H]1CC[C@H](O)CC1,9.95 µM
2,COc1ccc(-c2oc(C3CC3)nc2C)cc1,> 30 µM
3,COc1ccc(-c2oc(C3CC3)nc2C)cc1S(N)(=O)=O,0.067 µM
4,Cc1cc(-c2cnc(C3CC3)o2)cc(S(=O)(=O)N[C@H]2CC[C@H](O)CC2)c1C,6.73 µM
5,COc1ccc(-c2oc(C3CCC(CO)CC3)nc2C)cc1S(=O)(=O)N[C@H]1CC[C@H](O)CC1 (some centres undefined),0.032 µM
6,COc1ccc(-c2oc(C3CC3)nc2C)cc1S(=O)(=O)Nc1cccc(C#N)c1,< 0.03 µM
7,COc1ccc(-c2oc(C3CC3)nc2C)cc1S(=O)(=O)CC1CCC(O)CC1 (centres undefined),0.067 µM
8,COc1ccc(-c2oc(C)nc2C)cc1S(=O)(=O)N[C@H]1CC[C@H](O)CC1,3.21 µM
9,COc1ccc(-c2oc(C3CC3)nc2C)cc1S(C)(=O)=O,0.12 µM
10,COc1ccc(-c2oc(C3CC3)nc2C)cc1S(=O)(=O)NCC(C)(C)O,0.114 µM
11,COc1ccc(-c2ocnc2C)cc1S(=O)(=O)N[C@H]1CC[C@H](O)CC1,> 10 µM
12,COc1ccc(-c2oc(C3CC3)nc2C)cc1S(=O)(=O)N[C@H]1CC[C@H](O)CC1,0.034 µM
13,COc1ccc(-c2oc(C3CC3)nc2C)cc1S(=O)(=O)NCCO,0.043 µM
14,Cc1ccc(-c2oc(C3CC3)nc2C)cc1S(=O)(=O)N[C@H]1CC[C@H](O)CC1,0.046 µM
15,Cc1ccc(-c2cnc(C3CC3)o2)cc1S(=O)(=O)Nc1ccccc1Cl,1.02 µM
16,COc1ccc(-c2oc(C3(C)CC3)nc2C)cc1S(=O)(=O)N[C@H]1CC[C@H](O)CC1,0.041 µM
17,COc1ccc(-c2oc(-c3ccncc3)nc2C)cc1S(=O)(=O)N[C@H]1CC[C@H](O)CC1,0.41 µM
18,COc1ccc(-c2oc(C3CCOCC3)nc2C)cc1S(=O)(=O)N[C@H]1CC[C@H](O)CC1,0.402 µM
19,COc1ccc(-c2oc(-c3ccccc3)nc2C)cc1S(=O)(=O)N[C@H]1CC[C@H](O)CC1,0.193 µM
20,COc1ccc(-c2oc(C3CCCCC3)nc2C)cc1S(=O)(=O)N[C@H]1CC[C@H](O)CC1,0.108 µM
21,COc1ccc(-c2cnc(C3CC3)o2)cc1S(=O)(=O)N[C@H]1CC[C@H](O)CC1,0.193 µM
22,COc1ccc(-c2oc(C3CCCC3)nc2C)cc1S(=O)(=O)N[C@H]1CC[C@H](O)CC1,0.03 µM
23,COc1ccc(-c2oc(Cc3ccccc3)nc2C)cc1S(=O)(=O)N[C@H]1CC[C@H](O)CC1,0.041 µM
24,Cc1ccc(-c2cnc(C3CC3)o2)cc1S(=O)(=O)N[C@H]1CC[C@H](O)CC1,0.099 µM
25,COc1ccc(-c2oc(C3CC3)nc2C)cc1C(=O)N[C@H]1CC[C@H](O)CC1,3.56 µM
26,COc1ccc(-c2cc(C3CC3)nn2C)cc1S(=O)(=O)N[C@H]1CC[C@H](O)CC1,0.356 µM

# Test system: Hepatitis C virus
# Assay: Antiviral activity against Hepatitis C virus subtype 2a JFH-1 infected in HuH7 cells by cell based replicon assay
# Format: functional, Hepacivirus hominis
# Conditions: genotype 2a JFH-1, Huh-7
row,Structure (SMILES),EC50
1,COc1ccc(-c2oc(C3CC3)nc2C)cc1S(=O)(=O)N[C@H]1CC[C@H](O)CC1,0.324 µM
2,Cc1ccc(-c2oc(C3CC3)nc2C)cc1S(=O)(=O)N[C@H]1CC[C@H](O)CC1,0.375 µM
3,Cc1ccc(-c2cnc(C3CC3)o2)cc1S(=O)(=O)Nc1ccccc1Cl,1.82 µM
4,COc1ccc(-c2oc(C3(C)CC3)nc2C)cc1S(=O)(=O)N[C@H]1CC[C@H](O)CC1,0.147 µM
5,COc1ccc(-c2oc(Cc3ccccc3)nc2C)cc1S(=O)(=O)N[C@H]1CC[C@H](O)CC1,0.383 µM

# Test system: not listed separately
# Assay: Inhibition of human recombinant Phosphatidylinositol 4-kinase type 3-alpha expressed in Sf9 cells assessed as reduction in […] by pyruvate kinase and lactate dehydrogenase coupled assay
# Conditions: not given
row,Structure (SMILES),IC50
1,COc1ccc(-c2oc(C3CC3)nc2C)cc1S(=O)(=O)N[C@H]1CC[C@H](O)CC1,> 10 µM
2,Cc1ccc(-c2oc(C3CC3)nc2C)cc1S(=O)(=O)N[C@H]1CC[C@H](O)CC1,> 10 µM
3,Cc1ccc(-c2cnc(C3CC3)o2)cc1S(=O)(=O)Nc1ccccc1Cl,> 10 µM

# Test system: not listed separately
# Assay: Aqueous solubility at room temperature after 24 hrs by HPLC method
# Format: physicochemical
# Conditions: aqueous medium
row,Structure (SMILES),solubility at 24 h
1,Cc1ccc(-c2cnc(C3CC3)o2)cc1S(=O)(=O)Nc1ccccc1Cl,< 2 µM
2,Cc1ccc(-c2cnc(C3CC3)o2)cc1S(=O)(=O)N[C@H]1CC[C@H](O)CC1,220 µM

# Test system: Hepatitis C virus
# Assay: Antiviral activity against Hepatitis C virus subtype 1a infected in HuH7 cells by cell based replicon assay
# Format: functional, Hepacivirus hominis
# Conditions: Huh-7
row,Structure (SMILES),EC50
1,Cc1cc(-c2cnc(C3CC3)o2)cc(S(=O)(=O)N[C@H]2CC[C@H](O)CC2)c1C,2.1 µM
2,COc1ccc(-c2oc(C3CC3)nc2C)cc1S(=O)(=O)N[C@H]1CC[C@H](O)CC1,0.066 µM
3,Cc1ccc(-c2oc(C3CC3)nc2C)cc1S(=O)(=O)N[C@H]1CC[C@H](O)CC1,0.059 µM
4,Cc1ccc(-c2cnc(C3CC3)o2)cc1S(=O)(=O)Nc1ccccc1Cl,1.58 µM
5,COc1ccc(-c2oc(C3(C)CC3)nc2C)cc1S(=O)(=O)N[C@H]1CC[C@H](O)CC1,0.086 µM
6,COc1ccc(-c2oc(Cc3ccccc3)nc2C)cc1S(=O)(=O)N[C@H]1CC[C@H](O)CC1,0.053 µM
7,Cc1ccc(-c2cnc(C3CC3)o2)cc1S(=O)(=O)N[C@H]1CC[C@H](O)CC1,0.166 µM

# Test system: not listed separately
# Assay: Inhibition of PI3K (unknown origin)
# Design: species or system Homo sapiens
# Conditions: not given
row,Structure (SMILES),IC50
1,COc1ccc(-c2oc(C3CC3)nc2C)cc1S(=O)(=O)N[C@H]1CC[C@H](O)CC1,8.2 µM
2,Cc1ccc(-c2oc(C3CC3)nc2C)cc1S(=O)(=O)N[C@H]1CC[C@H](O)CC1,6.29 µM
3,Cc1ccc(-c2cnc(C3CC3)o2)cc1S(=O)(=O)Nc1ccccc1Cl,2.4 µM
4,Cc1ccc(-c2cnc(C3CC3)o2)cc1S(=O)(=O)N[C@H]1CC[C@H](O)CC1,> 9.1 µM

# Test system: not listed separately
# Assay: Cytotoxicity against Hepatitis C virus genotype 1b Con1 infected human HuH7 cells after 48 hrs by MTT assay
# Format: cell-based, Huh-7
# Conditions: HuH7 cells infected with Hepatitis C virus genotype 1b Con1
row,Structure (SMILES),CC50 at 48 h
1,COc1ccc(-c2[nH]c(C3CC3)nc2C)cc1S(=O)(=O)N[C@H]1CC[C@H](O)CC1,> 31 µM
2,COc1ccc(-c2oc(C3CC3)nc2C)cc1,> 31 µM
3,COc1ccc(-c2oc(C3CC3)nc2C)cc1S(N)(=O)=O,> 31 µM
4,Cc1cc(-c2cnc(C3CC3)o2)cc(S(=O)(=O)N[C@H]2CC[C@H](O)CC2)c1C,> 31 µM
5,COc1ccc(-c2oc(C3CCC(CO)CC3)nc2C)cc1S(=O)(=O)N[C@H]1CC[C@H](O)CC1 (some centres undefined),> 31 µM
6,COc1ccc(-c2oc(C3CC3)nc2C)cc1S(=O)(=O)Nc1cccc(C#N)c1,> 31 µM
7,COc1ccc(-c2oc(C3CC3)nc2C)cc1S(=O)(=O)CC1CCC(O)CC1 (centres undefined),> 31 µM
8,COc1ccc(-c2oc(C)nc2C)cc1S(=O)(=O)N[C@H]1CC[C@H](O)CC1,> 31 µM
9,COc1ccc(-c2oc(C3CC3)nc2C)cc1S(C)(=O)=O,> 31 µM
10,COc1ccc(-c2oc(C3CC3)nc2C)cc1S(=O)(=O)NCC(C)(C)O,> 31 µM
11,COc1ccc(-c2ocnc2C)cc1S(=O)(=O)N[C@H]1CC[C@H](O)CC1,> 31 µM
12,COc1ccc(-c2oc(C3CC3)nc2C)cc1S(=O)(=O)N[C@H]1CC[C@H](O)CC1,> 31 µM
13,COc1ccc(-c2oc(C3CC3)nc2C)cc1S(=O)(=O)NCCO,> 31 µM
14,Cc1ccc(-c2oc(C3CC3)nc2C)cc1S(=O)(=O)N[C@H]1CC[C@H](O)CC1,> 31 µM
15,Cc1ccc(-c2cnc(C3CC3)o2)cc1S(=O)(=O)Nc1ccccc1Cl,> 31 µM
16,COc1ccc(-c2oc(C3(C)CC3)nc2C)cc1S(=O)(=O)N[C@H]1CC[C@H](O)CC1,> 31 µM
17,COc1ccc(-c2oc(-c3ccncc3)nc2C)cc1S(=O)(=O)N[C@H]1CC[C@H](O)CC1,> 31 µM
18,COc1ccc(-c2oc(C3CCOCC3)nc2C)cc1S(=O)(=O)N[C@H]1CC[C@H](O)CC1,> 31 µM
19,COc1ccc(-c2oc(-c3ccccc3)nc2C)cc1S(=O)(=O)N[C@H]1CC[C@H](O)CC1,> 31 µM
20,COc1ccc(-c2oc(C3CCCCC3)nc2C)cc1S(=O)(=O)N[C@H]1CC[C@H](O)CC1,> 31 µM
21,COc1ccc(-c2cnc(C3CC3)o2)cc1S(=O)(=O)N[C@H]1CC[C@H](O)CC1,> 31 µM
22,COc1ccc(-c2oc(C3CCCC3)nc2C)cc1S(=O)(=O)N[C@H]1CC[C@H](O)CC1,> 31 µM
23,COc1ccc(-c2oc(Cc3ccccc3)nc2C)cc1S(=O)(=O)N[C@H]1CC[C@H](O)CC1,> 31 µM
24,Cc1ccc(-c2cnc(C3CC3)o2)cc1S(=O)(=O)N[C@H]1CC[C@H](O)CC1,> 31 µM
25,COc1ccc(-c2oc(C3CC3)nc2C)cc1C(=O)N[C@H]1CC[C@H](O)CC1,> 31 µM
26,COc1ccc(-c2cc(C3CC3)nn2C)cc1S(=O)(=O)N[C@H]1CC[C@H](O)CC1,> 31 µM

# Test system: not listed separately
# Assay: Inhibition of human recombinant Phosphatidylinositol 4-kinase type 3-beta expressed in Sf9 cells assessed as reduction in […] by pyruvate kinase and lactate dehydrogenase coupled assay
# Conditions: not given
row,Structure (SMILES),IC50
1,COc1ccc(-c2[nH]c(C3CC3)nc2C)cc1S(=O)(=O)N[C@H]1CC[C@H](O)CC1,1.03 µM
2,COc1ccc(-c2oc(C3CC3)nc2C)cc1,> 2.5 µM
3,COc1ccc(-c2oc(C3CC3)nc2C)cc1S(N)(=O)=O,0.064 µM
4,Cc1cc(-c2cnc(C3CC3)o2)cc(S(=O)(=O)N[C@H]2CC[C@H](O)CC2)c1C,> 2.5 µM
5,COc1ccc(-c2oc(C3CCC(CO)CC3)nc2C)cc1S(=O)(=O)N[C@H]1CC[C@H](O)CC1 (some centres undefined),0.009 µM
6,COc1ccc(-c2oc(C3CC3)nc2C)cc1S(=O)(=O)Nc1cccc(C#N)c1,0.011 µM
7,COc1ccc(-c2oc(C3CC3)nc2C)cc1S(=O)(=O)CC1CCC(O)CC1 (centres undefined),0.079 µM
8,COc1ccc(-c2oc(C)nc2C)cc1S(=O)(=O)N[C@H]1CC[C@H](O)CC1,0.414 µM
9,COc1ccc(-c2oc(C3CC3)nc2C)cc1S(C)(=O)=O,0.076 µM
10,COc1ccc(-c2oc(C3CC3)nc2C)cc1S(=O)(=O)NCC(C)(C)O,0.033 µM
11,COc1ccc(-c2ocnc2C)cc1S(=O)(=O)N[C@H]1CC[C@H](O)CC1,1.61 µM
12,COc1ccc(-c2oc(C3CC3)nc2C)cc1S(=O)(=O)N[C@H]1CC[C@H](O)CC1,0.019 µM
13,COc1ccc(-c2oc(C3CC3)nc2C)cc1S(=O)(=O)NCCO,0.027 µM
14,Cc1ccc(-c2oc(C3CC3)nc2C)cc1S(=O)(=O)N[C@H]1CC[C@H](O)CC1,0.018 µM
15,Cc1ccc(-c2cnc(C3CC3)o2)cc1S(=O)(=O)Nc1ccccc1Cl,0.135 µM
16,COc1ccc(-c2oc(C3(C)CC3)nc2C)cc1S(=O)(=O)N[C@H]1CC[C@H](O)CC1,0.028 µM
17,COc1ccc(-c2oc(-c3ccncc3)nc2C)cc1S(=O)(=O)N[C@H]1CC[C@H](O)CC1,0.191 µM
18,COc1ccc(-c2oc(C3CCOCC3)nc2C)cc1S(=O)(=O)N[C@H]1CC[C@H](O)CC1,0.036 µM
19,COc1ccc(-c2oc(-c3ccccc3)nc2C)cc1S(=O)(=O)N[C@H]1CC[C@H](O)CC1,0.037 µM
20,COc1ccc(-c2oc(C3CCCCC3)nc2C)cc1S(=O)(=O)N[C@H]1CC[C@H](O)CC1,0.019 µM
21,COc1ccc(-c2cnc(C3CC3)o2)cc1S(=O)(=O)N[C@H]1CC[C@H](O)CC1,0.037 µM
22,COc1ccc(-c2oc(C3CCCC3)nc2C)cc1S(=O)(=O)N[C@H]1CC[C@H](O)CC1,0.009 µM
23,COc1ccc(-c2oc(Cc3ccccc3)nc2C)cc1S(=O)(=O)N[C@H]1CC[C@H](O)CC1,0.004 µM
24,Cc1ccc(-c2cnc(C3CC3)o2)cc1S(=O)(=O)N[C@H]1CC[C@H](O)CC1,0.049 µM
25,COc1ccc(-c2oc(C3CC3)nc2C)cc1C(=O)N[C@H]1CC[C@H](O)CC1,9.73 µM
26,COc1ccc(-c2cc(C3CC3)nn2C)cc1S(=O)(=O)N[C@H]1CC[C@H](O)CC1,0.054 µM
